{"source": "patent US20140242093A1", "about": "“METHODS AND COMPOSITIONS FOR MODULATING THE INNATE IMMUNE RESPONSE AND/OR MYOGENESIS IN A MAMMALIAN SUBJECT” (FRED HUTCHINSON CANCER RESEARCH CENTER, priority 2011, published 2014)", "test_system": "control human primary myoblasts", "experiment": "Expression microarray of primary myoblasts transduced with lentivirus carrying DUX4-fl, DUX4-s or GFP", "settings": "log2 fc vs lenti-GFP, 24 h", "procedure": "Primary human myoblasts were collected and cultured as previously described (Snider et al., 2010). Primary myoblasts were maintained at or below 70% confluency for proliferation. For differentiation, cells were allowed to reach 95-100% confluency in growth medium. Once confluency was reached, the cells were changed to differentiation medium (F10 media supplemented with 1% horse serum, 10 μg/mL insulin, and 10 μg/mL transferrin, penicillin/streptomycin) and maintained for 4 days. Human RD cells were grown in DMEM in 10% bovine calf serum (Hyclone) and penicillin/streptomycin. The primary myoblasts were transduced with lentivirus carrying DUX-fl, DUX4- or GFP (MOI=15).\nExpression microarrays were performed on the transduced cells at 24 hours after transduction as follows. […] Samples were analyzed by Illumina Human Whole Genome microarrays. Probe intensities were corrected, normalized, and summarized by the Lumi package of Bioconductor (Du et al., 2008). Differentially expressed genes were identified by the LIMMA package of Bioconductor (Wettenhall and Smyth, 2004). Gene set enrichment analysis (GSEA) was performed using the Bioconductor GOstats package (Falcon and Gentleman, 2007).", "data": [{"substance": "DUX4-fl: full-length DUX4 protein (SEQ ID NO:110), expressed from lentiviral or pCS2 vectors or in vitro translated", "values": [{"measurement": "full_fc ART3", "value": 4.363}, {"measurement": "full_fc C6orf148", "value": 6.759}, {"measurement": "full_fc C12orf50", "value": 4.522}, {"measurement": "full_fc CA2", "value": 6.091}, {"measurement": "full_fc CCNA1", "value": 7.526}, {"measurement": "full_fc CSAG3", "value": 5.871}, {"measurement": "full_fc DEFB103A", "value": 6.442}, {"measurement": "full_fc ENTPD8", "value": 4.073}, {"measurement": "full_fc HBA1", "value": 4.787}, {"measurement": "full_fc HBA2", "value": 4.721}, {"measurement": "full_fc HIST2H3A", "value": 4.945}, {"measurement": "full_fc KHDC1L", "value": 8.012}, {"measurement": "full_fc LOC136157", "value": 8.299}, {"measurement": "full_fc LOC196120", "value": 8.179}, {"measurement": "full_fc LOC284428", "value": 8.023}, {"measurement": "full_fc LOC340096", "value": 7.382}, {"measurement": "full_fc LOC340970", "value": 8.316}, {"measurement": "full_fc LOC342900", "value": 7.391}, {"measurement": "full_fc LOC390031", "value": 8.331}, {"measurement": "full_fc LOC391742", "value": 5.733}, {"measurement": "full_fc LOC391764", "value": 5.821}, {"measurement": "full_fc LOC391766", "value": 5.724}, {"measurement": "full_fc LOC391767", "value": 5.492}, {"measurement": "full_fc LOC391769", "value": 8.19}, {"measurement": "full_fc LOC399939", "value": 6.931}, {"measurement": "full_fc LOC399940", "value": 4.727}, {"measurement": "full_fc LOC401860", "value": 4.272}, {"measurement": "full_fc LOC402199", "value": 4.392}, {"measurement": "full_fc LOC402207", "value": 4.903}, {"measurement": "full_fc LOC440040", "value": 7.534}, {"measurement": "full_fc LOC440563", "value": 5.312}, {"measurement": "full_fc LOC441584", "value": 7.781}, {"measurement": "full_fc LOC642127", "value": 6.112}, {"measurement": "full_fc LOC642148", "value": 6.851}, {"measurement": "full_fc LOC642219", "value": 4.799}, {"measurement": "full_fc LOC642362", "value": 8.016}, {"measurement": "full_fc LOC643263", "value": 8.345}, {"measurement": "full_fc LOC643445", "value": 8.25}, {"measurement": "full_fc LOC645558", "value": 4.803}, {"measurement": "full_fc LOC645669", "value": 8.202}, {"measurement": "full_fc LOC646066", "value": 4.391}, {"measurement": "full_fc LOC646103", "value": 4.658}, {"measurement": "full_fc LOC646698", "value": 6.012}, {"measurement": "full_fc LOC646754", "value": 5.11}, {"measurement": "full_fc LOC647827", "value": 4.053}, {"measurement": "full_fc LOC651308", "value": 8.169}, {"measurement": "full_fc LOC653192", "value": 8.228}, {"measurement": "full_fc LOC653656", "value": 7.897}, {"measurement": "full_fc LOC653657", "value": 7.857}, {"measurement": "full_fc LOC654101", "value": 5.034}, {"measurement": "full_fc LOC729368", "value": 5.416}, {"measurement": "full_fc LOC729384", "value": 6.832}, {"measurement": "full_fc LOC729458", "value": 8.247}, {"measurement": "full_fc LOC729516", "value": 5.955}, {"measurement": "full_fc LOC729694", "value": 4.029}, {"measurement": "full_fc LOC729700", "value": 4.817}, {"measurement": "full_fc LOC729706", "value": 4.227}, {"measurement": "full_fc LOC729731", "value": 5.007}, {"measurement": "full_fc LOC730974", "value": 7.715}, {"measurement": "full_fc LOC732393", "value": 4.637}, {"measurement": "full_fc LOC100131392", "value": 6.976}, {"measurement": "full_fc LOC100131539", "value": 4.629}, {"measurement": "full_fc LOC100133446", "value": 4.635}, {"measurement": "full_fc LOC100133984", "value": 6.204}, {"measurement": "full_fc LOC100134006", "value": 7.087}, {"measurement": "full_fc LOC100134199", "value": 8.048}, {"measurement": "full_fc MBD3L2", "value": 7.623}, {"measurement": "full_fc NP", "value": 6.961}, {"measurement": "full_fc NXF1", "value": 4.233}, {"measurement": "full_fc OR2T34", "value": 4.519}, {"measurement": "full_fc PPP2R2B", "value": 4.13}, {"measurement": "full_fc PRAMEF1", "value": 8.072}, {"measurement": "full_fc PRAMEF2", "value": 6.439}, {"measurement": "full_fc PRAMEF4", "value": 7.06}, {"measurement": "full_fc PRAMEF5", "value": 7.35}, {"measurement": "full_fc PRAMEF6", "value": 5.826}, {"measurement": "full_fc PRAMEF7", "value": 7.631}, {"measurement": "full_fc PRAMEF9", "value": 7.131}, {"measurement": "full_fc PRAMEF10", "value": 6.064}, {"measurement": "full_fc PRAMEF11", "value": 5.94}, {"measurement": "full_fc PRAMEF12", "value": 7.802}]}]}
